# In article PMC12605013, “SAG1.3-derived Frizzled-targeting small-molecule compounds” (The Journal of Biological Chemistry, 2025):
# Molecular target: T1, Nluc-FZD6 (Homo sapiens, UniProt O60353)
# T1 construct: expressed in transfected cells; host or cells: ΔSMO HEK293A or ΔFZD1–10 HEK293T cells (screen); ΔFZD1–10 HEK293T cells (concentration–response curves)
# T1 sequence (O60353 19-706): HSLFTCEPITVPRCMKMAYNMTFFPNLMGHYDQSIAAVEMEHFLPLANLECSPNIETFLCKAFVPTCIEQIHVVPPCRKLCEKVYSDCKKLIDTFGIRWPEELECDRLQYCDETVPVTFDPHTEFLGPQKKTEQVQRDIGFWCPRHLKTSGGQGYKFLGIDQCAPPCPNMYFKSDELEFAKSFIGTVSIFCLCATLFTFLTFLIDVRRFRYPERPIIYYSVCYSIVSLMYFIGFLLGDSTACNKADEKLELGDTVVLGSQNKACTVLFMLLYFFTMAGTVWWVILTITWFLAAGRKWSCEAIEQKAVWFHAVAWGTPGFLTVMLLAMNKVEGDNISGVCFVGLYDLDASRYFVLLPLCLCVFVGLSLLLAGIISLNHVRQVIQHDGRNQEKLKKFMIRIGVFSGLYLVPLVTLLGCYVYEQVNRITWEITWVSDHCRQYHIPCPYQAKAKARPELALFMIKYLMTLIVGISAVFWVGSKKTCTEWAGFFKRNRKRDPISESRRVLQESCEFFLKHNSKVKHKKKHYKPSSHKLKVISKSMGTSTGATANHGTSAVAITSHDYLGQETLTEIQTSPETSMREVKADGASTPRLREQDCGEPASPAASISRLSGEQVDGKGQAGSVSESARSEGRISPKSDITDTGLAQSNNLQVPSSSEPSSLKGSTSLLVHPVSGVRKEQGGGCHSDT
# Assay: BRET-based BODIPY-cyclopamine competition binding at Nluc-FZD6 in live HEK293 cells
# Description: After 24 h, cells were washed once with Hanks' balanced salt solution (HBSS), followed by the addition of 80 μl of HBSS. Next, 10 μl of the competitive ligand, that is, the tested SAG1.3 derivative (either in different concentrations for the concentration–response curves or at a final concentration of 10 μM for the first screens) and 10 μl of the fluorescent tracer BODIPY–cyclopamine (final concentration: 300 nM for the first screens, 200 nM for the concentration–response experiments) were added. All serial dilutions were prepared in HBSS. The cells were incubated for 90 min at 37 °C without additional CO2, after which 10 μl of luciferase substrate diluted in HBSS (furimazine; Promega, N1572, final dilution: 1:1000 for first screening) and coelenterazine h (Biosynth; final concentration: 5 μM for concentration–response experiments) were added to the cells. Following a 10 min incubation period in the dark, the measurement was started on a BMG Labtech ClarioStar or TECAN Spark multimode microplate reader, prewarmed to 37 °C. Nluc bioluminescence was detected between 460 and 490 nm (ClarioStar) or 460 and 500 nm (TECAN Spark). The emission of the fluorescent tracer was detected between 520 and 550 nm (ClarioStar) or between 520 and 560 nm (TECAN Spark).
# For each binding experiment, the measurement was repeated five times and averaged for the analysis. ΔBRET values were obtained by subtracting the BRET ratio obtained in wells containing BODIPY–cyclopamine but no competitive ligand (100% value). The BRET values for full displacement were defined using “donor-only” control wells, which contained Nluc-FZDx-transfected cells but no BODIPY–cyclopamine.
# For the full concentration–response BRET binding curves in Figure 2, BRET values were normalized (separately for each experiment) to control wells containing BODIPY–cyclopamine but no competitive ligand (100% value) and “donor-only” wells (0% value, described previously). […] Obtained IC50 values were transformed to pIC50 values, which were subsequently averaged between experiments. Displacement curves showing the non-normalized data (ΔBRET values generated as described previously) can be found in Fig. S2.
# Shown are mean values and SDs from N independent experiments (N = 2-8) performed in duplicate.
# Shown are mean values ± SEM from N independent experiments performed in triplicate.
compound,measurement,setting,value
"CC(=O)Nc1cccc(C(=O)NC2CCC(N(Cc3cccc(-c4ccncc4)c3)C(=O)c3sc4ccccc4c3Cl)CC2)c1 (stereo not shown) [compound 11, N-((1r,4r)-4-(3-Acetamidobenzamido)cyclohexyl)-3-chloro-N-(3-(pyridin-4-yl)benzyl)benzo[b]thiophene-2-carboxamide]",Displacement @ 10 µM compound (Nluc-FZD6) ΔBRET,"10 µM compound, BODIPY-cyclopamine 300 nM, BMG Labtech ClarioStar reader (complete tracer displacement: net BRET = -0.02736)",-0.0228
same,Displacement %,"10 µM compound, BODIPY-cyclopamine 300 nM, ClarioStar reader",83.2%
same,IC50,"BODIPY-cyclopamine 200 nM, ΔFZD1-10 HEK293T cells, read-out: pIC50 (Nluc-FZD6) mean ± SEM (converted)",1.02 µM
same,IC50 values of competition binding within the FZD family (in words),Nluc-FZD6 and other FZD paralogs,three-digit nanomolar to single-digit micromolar range
